Assay results taken from paper PMC8071358, “Targeting of the Essential acpP, ftsZ, and rne Genes in Carbapenem-Resistant Acinetobacter baumannii by Antisense PNA Precision Antibacterials” (Biomedicines, 2021).
In brackets after ≈: the same amount, converted by molar mass. {(KFF)3K-eg1} = H-(KFF)3K peptide (K lysine, F phenylalanine) with eg1 linker (8-amino-3,6-dioxaoctanoyl), on the PNA N terminus (5' end); {(kff)3k-eg1} = D-form (kff)3k peptide with eg1 linker (8-amino-3,6-dioxaoctanoyl), on the PNA N terminus; {NH2} = C-terminal amide

What was measured:
Format in all cases: cell-based, Acinetobacter baumannii
A. baumannii ATCC 19606 = assay: BPP-PNA MIC, broth microdilution; details: 37 °C, 18 h
Method: (§1) MIC values were determined by broth microdilution according to standard protocols with a few modifications. An overnight bacterial cell culture was diluted to approximately 5 × 10^5 CFU/mL in non-cation-adjusted Muller Hinton Broth (MHB). Then, 180 µL bacterial solutions were dispensed into a low-bind 96-well plate (Thermo-Scientific, Roskilde, Denmark) along with 20 µL of BPP-PNA compound (BPP-PNA was serially diluted 2-fold from 16 to 0.5 µM in a 96-well plate). The plate was incubated in a Tecan Genios plate reader (GMI, Minnesota, Ramsey, USA) at 37 °C for 18 h with linear shaking, OD was measured every 20 min at 595 nm. […] The minimum bactericidal concentration (MBC) values were determined by plating 10 µL samples from the wells with no visible turbidity onto Mueller–Hinton agar plates. The MBC is determined the lowest concentration of BPP-PNA that reduces the viability of the initial bacterial inoculum by ≥99.9% (3-log reduction in CFU/mL). A minimum of two independent experiments (biological replicates) of the assay were conducted, and two technical replicates were used in each experiment for each bacterium, compound, and concentration.

CRAB strain AC44 [1] = assay: BPP-PNA MIC, broth microdilution
Method: as §1

A. baumannii SSI1104 = assay: BPP-PNA MIC, broth microdilution
Method: as §1, with “An overnight bacterial cell culture was diluted to approximately 5 × 10^5 CFU/mL in non-cation-adjusted Muller Hinton Broth (MHB).” left out

CRAB strain AC2 = assay: BPP-PNA MIC, broth microdilution
Method: as §1

CRAB strain AC46 [2] = assay: BPP-PNA MIC, broth microdilution
Method: as §1, with “An overnight bacterial cell culture was diluted to approximately 5 × 10^5 CFU/mL in non-cation-adjusted Muller Hinton Broth (MHB).” left out

[3] = tested on: A. baumannii ATCC 19606 type strain; assay: Antibiotic MIC (CLSI microdilution or gradient strips); details: Acinetobacter baumannii, ATCC19606
Method: (§2) All minimum inhibitory concentration (MIC) determinations for antibiotics were performed by the standard microdilution method in 96-well microplate (Thermo-Scientific, Roskilde, Denmark) or by gradient test strips (Liofilchem, Italy) according to the Clinical and Laboratory Standards Institute guidelines. Escherichia coli ATCC 25922 was used as control.

CRAB strain AC44 [4] = assay: as above; details: Acinetobacter baumannii, AC44, urine isolate
Method: as §2

CRAB strain AC46 [5] = assay: as above; details: Acinetobacter baumannii, AC46; sputum isolate; CLSI; read-out: MIC, AC46
Method: as §2

CRAB strain AC8 = assay: as above; details: Acinetobacter baumannii, AC8; sputum isolate; CLSI; read-out: MIC, AC8
Method: as §2

CRAB strain AC9 = assay: as above; details: Acinetobacter baumannii, AC9; CSF isolate; CLSI; read-out: MIC, AC9
Method: as §2

[6] = MHB without cation (Oxoid), 37 °C, 18 h
[7] = Table 4 (anti-rne), brand of medium not given, non-cation-adjusted MHB by method
[8] = Sigma MHB medium without cation, 37 °C, 18 h

H-(KFF)3K-eg1-GGCCATGACCT-NH2 (N-terminal (KFF)3K-eg1 peptide, C-terminal amide, backbone not given here, further chemistry not given here) [PNA 5658, anti-ftsZ peptide-PNA conjugate, match, −5 to +6]
MIC, ATCC 19606 (A. baumannii ATCC 19606; MHB without cation (Oxoid)): 4 µM | MIC, AC44 (CRAB strain AC44 [1]; [6]): 8 µM | MIC, SSI 1104 (A. baumannii SSI1104; [6]): 8 µM

H-(KFF)3K-eg1- TTTGATGTGTG -NH2 (all peptide nucleic acid (PNA), 5' {(KFF)3K-eg1}, 3' {NH2}) [PNA 5822, anti-rne mismatch control of 5656]
MIC, ATCC 19606 (A. baumannii ATCC 19606; [7]): 8 µM | MIC, AC2 (CRAB strain AC2; [7]): 8 µM | MIC, AC44 (CRAB strain AC44 [1]; [7]): 8 µM | MIC, SSI 1104 (A. baumannii SSI1104; [7]): 8 µM | MIC, AC46 (CRAB strain AC46 [2]; [7]): 8 µM

H-(KFF)3K-eg1-ATACGTTTCAT-NH2 (all peptide nucleic acid (PNA), 5' {(KFF)3K-eg1}, 3' {NH2}) [PNA 5654, anti-rne peptide-PNA conjugate, match, +1 to +11]
MIC, ATCC 19606 (A. baumannii ATCC 19606; [7]): 2 µM | MIC, AC2 (CRAB strain AC2; [7]): 2 µM | MIC, AC44 (CRAB strain AC44 [1]; [7]): 1 µM | MIC, SSI 1104 (A. baumannii SSI1104; [7]): 2 µM | MIC, AC46 (CRAB strain AC46 [2]; [7]): 2 µM

H-(kff)3k-eg1-TGATTTGCCAC-NH2 (all peptide nucleic acid (PNA), 5' {(kff)3k-eg1}, 3' {NH2}) [PNA 5823, anti-acpP PNA with D-form peptide, match]
MIC, ATCC 19606 (A. baumannii ATCC 19606; Sigma MHB medium without cation, ~5 × 10^5 CFU/mL, OD595 < 0.1): 4 µM | MIC, AC2 (CRAB strain AC2; [8]): 4 µM | MIC, AC44 (CRAB strain AC44 [1]; [8]): 4 µM | MIC, SSI 1104 (A. baumannii SSI1104; [8]): 4 µM | MIC, AC46 (CRAB strain AC46 [2]; [8]): 4 µM

CN(C)[C@@H]1C(O)=C(C(N)=O)C(=O)[C@@]2(O)C(O)=C3C(=O)c4c(O)cccc4[C@@](C)(O)[C@H]3C[C@@H]12 [Tetracycline]
MIC [3]: 1 µg/mL (≈ 2.25 µM) | MIC (CRAB strain AC44 [4]): 256 µg/mL (≈ 576 µM) | MIC (CRAB strain AC46 [5]): 128 µg/mL (≈ 288 µM) | MIC (CRAB strain AC8): 32 µg/mL (≈ 72 µM) | MIC (CRAB strain AC9): 32 µg/mL (≈ 72 µM)

H-(KFF)3K-eg1-ATGAGGCCATG-NH2 (all peptide nucleic acid (PNA), 5' {(KFF)3K-eg1}, 3' {NH2}) [PNA 5657, anti-ftsZ peptide-PNA conjugate, match, −1 to +10]
MIC, ATCC 19606 (A. baumannii ATCC 19606; MHB without cation (Oxoid)): >16 µM | MIC, AC44 (CRAB strain AC44 [1]; [6]): 16 µM

H-(KFF)3K-eg1-ATCCGTTTAAT-NH2 (all peptide nucleic acid (PNA), 5' {(KFF)3K-eg1}, 3' {NH2}) [PNA 5821, anti-rne mismatch control of 5654]
MIC, ATCC 19606 (A. baumannii ATCC 19606; [7]): 4 µM | MIC, AC2 (CRAB strain AC2; [7]): 2 µM | MIC, AC44 (CRAB strain AC44 [1]; [7]): 1 µM | MIC, SSI 1104 (A. baumannii SSI1104; [7]): 2 µM | MIC, AC46 (CRAB strain AC46 [2]; [7]): 2 µM

H-(KFF)3K-eg1-ACGTTTCATGG-NH2 (all peptide nucleic acid (PNA), 5' {(KFF)3K-eg1}, 3' {NH2}) [PNA 5637, anti-rne peptide-PNA conjugate, match, −2 to +9]
MIC, ATCC 19606 (A. baumannii ATCC 19606; [7]): 1 µM | MIC, AC44 (CRAB strain AC44 [1]; [7]): 1 µM | MIC, AC46 (CRAB strain AC46 [2]; [7]): 1 µM
